Consider 9 compounds from ChEMBL document CHEMBL5291721, “A preclinical secondary pharmacology resource illuminates target-adverse drug reaction associations of marketed drugs” (Nat Commun, 2023).

The target of one experiment is Acetylcholinesterase (Homo sapiens, UniProt P22303). Type of experiment: functional.
The target of experiment [1] is T1, Alpha-2A adrenergic receptor (Homo sapiens, UniProt P08913).
T1 sequence (P08913 whole entry): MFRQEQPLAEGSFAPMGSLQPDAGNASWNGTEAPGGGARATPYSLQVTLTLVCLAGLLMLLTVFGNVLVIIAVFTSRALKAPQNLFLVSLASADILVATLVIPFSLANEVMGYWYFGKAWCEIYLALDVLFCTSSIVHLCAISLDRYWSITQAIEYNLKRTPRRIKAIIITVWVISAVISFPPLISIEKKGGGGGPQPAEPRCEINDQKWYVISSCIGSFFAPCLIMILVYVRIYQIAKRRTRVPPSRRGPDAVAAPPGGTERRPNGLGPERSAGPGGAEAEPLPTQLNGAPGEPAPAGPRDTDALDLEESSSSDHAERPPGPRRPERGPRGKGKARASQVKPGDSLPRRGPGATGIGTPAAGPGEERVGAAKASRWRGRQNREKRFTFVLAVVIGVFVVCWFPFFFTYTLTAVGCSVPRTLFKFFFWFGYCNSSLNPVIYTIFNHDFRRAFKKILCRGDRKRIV

Experiment [2] deals with T2, Muscarinic acetylcholine receptor M2 (Homo sapiens, UniProt P08172).
T2 sequence (P08172 whole entry): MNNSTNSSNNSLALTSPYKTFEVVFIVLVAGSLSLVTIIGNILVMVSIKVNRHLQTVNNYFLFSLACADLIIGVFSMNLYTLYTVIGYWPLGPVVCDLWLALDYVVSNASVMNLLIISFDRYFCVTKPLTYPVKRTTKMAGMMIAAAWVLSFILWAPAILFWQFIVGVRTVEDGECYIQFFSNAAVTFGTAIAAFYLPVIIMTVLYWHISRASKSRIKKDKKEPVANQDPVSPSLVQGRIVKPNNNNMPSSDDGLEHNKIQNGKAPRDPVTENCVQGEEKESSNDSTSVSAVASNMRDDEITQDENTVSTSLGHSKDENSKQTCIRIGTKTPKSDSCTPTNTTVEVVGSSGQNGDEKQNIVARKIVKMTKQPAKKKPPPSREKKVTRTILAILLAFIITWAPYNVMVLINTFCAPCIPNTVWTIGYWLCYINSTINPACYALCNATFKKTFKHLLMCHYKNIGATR

A further experiment addresses Prothrombin (Homo sapiens, UniProt P00734). Type of experiment: functional.
A further experiment addresses Histamine H3 receptor (Homo sapiens, UniProt Q9Y5N1).
For experiment [3], the target named is T3, 5-hydroxytryptamine receptor 1A (Homo sapiens, UniProt P08908).
T3 sequence (P08908 whole entry): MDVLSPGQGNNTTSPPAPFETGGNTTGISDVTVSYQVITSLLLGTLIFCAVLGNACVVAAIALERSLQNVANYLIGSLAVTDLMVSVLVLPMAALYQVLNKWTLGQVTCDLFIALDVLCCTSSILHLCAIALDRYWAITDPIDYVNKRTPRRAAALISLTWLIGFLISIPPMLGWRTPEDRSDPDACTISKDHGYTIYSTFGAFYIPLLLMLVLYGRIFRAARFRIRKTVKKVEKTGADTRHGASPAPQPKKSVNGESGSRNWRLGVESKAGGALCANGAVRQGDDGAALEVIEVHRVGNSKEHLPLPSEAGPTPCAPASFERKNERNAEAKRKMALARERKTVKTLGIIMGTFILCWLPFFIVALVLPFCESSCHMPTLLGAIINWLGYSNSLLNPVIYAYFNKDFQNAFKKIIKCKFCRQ

Experiment [4] addresses 5-hydroxytryptamine receptor 2B (Homo sapiens, UniProt P41595). Type of experiment: functional, cell-based.
Experiment [5] deals with Voltage-gated inwardly rectifying potassium channel KCNH2 (Homo sapiens, UniProt Q12809). Type of experiment: functional.
Sequence of Voltage-gated inwardly rectifying potassium channel KCNH2 (Q12809 whole entry): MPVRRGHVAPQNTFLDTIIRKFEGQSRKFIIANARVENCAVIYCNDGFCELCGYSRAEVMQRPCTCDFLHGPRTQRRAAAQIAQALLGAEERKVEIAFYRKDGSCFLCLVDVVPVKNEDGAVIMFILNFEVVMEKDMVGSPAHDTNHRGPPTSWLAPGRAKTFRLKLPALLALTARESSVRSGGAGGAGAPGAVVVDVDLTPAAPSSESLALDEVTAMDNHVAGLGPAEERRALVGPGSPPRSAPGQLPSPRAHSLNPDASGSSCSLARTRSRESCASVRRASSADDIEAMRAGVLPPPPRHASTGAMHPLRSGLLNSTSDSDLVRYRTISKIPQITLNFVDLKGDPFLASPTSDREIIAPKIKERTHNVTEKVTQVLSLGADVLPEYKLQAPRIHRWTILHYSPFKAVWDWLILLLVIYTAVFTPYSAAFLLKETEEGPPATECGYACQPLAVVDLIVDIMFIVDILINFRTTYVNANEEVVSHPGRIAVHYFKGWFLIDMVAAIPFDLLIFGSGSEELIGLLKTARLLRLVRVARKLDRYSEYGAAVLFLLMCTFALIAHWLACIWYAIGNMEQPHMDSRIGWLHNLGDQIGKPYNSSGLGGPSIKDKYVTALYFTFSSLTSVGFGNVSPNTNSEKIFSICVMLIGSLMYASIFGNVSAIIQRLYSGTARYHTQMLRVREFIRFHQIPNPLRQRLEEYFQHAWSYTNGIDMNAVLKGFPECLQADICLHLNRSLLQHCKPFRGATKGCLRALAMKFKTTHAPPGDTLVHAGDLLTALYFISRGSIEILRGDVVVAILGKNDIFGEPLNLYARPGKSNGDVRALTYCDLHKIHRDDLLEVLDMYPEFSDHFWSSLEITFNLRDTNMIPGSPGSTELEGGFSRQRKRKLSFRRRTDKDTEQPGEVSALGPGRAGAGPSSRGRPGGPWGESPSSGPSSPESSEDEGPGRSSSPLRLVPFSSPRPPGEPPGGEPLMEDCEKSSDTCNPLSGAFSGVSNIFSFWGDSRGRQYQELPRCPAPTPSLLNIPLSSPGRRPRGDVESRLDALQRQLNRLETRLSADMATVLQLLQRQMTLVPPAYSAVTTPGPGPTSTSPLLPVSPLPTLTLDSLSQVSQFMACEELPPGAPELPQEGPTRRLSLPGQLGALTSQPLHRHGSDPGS
For experiment [6], the target named is T4, Amine oxidase [flavin-containing] A (Homo sapiens, UniProt P21397).
T4 sequence (P21397 whole entry): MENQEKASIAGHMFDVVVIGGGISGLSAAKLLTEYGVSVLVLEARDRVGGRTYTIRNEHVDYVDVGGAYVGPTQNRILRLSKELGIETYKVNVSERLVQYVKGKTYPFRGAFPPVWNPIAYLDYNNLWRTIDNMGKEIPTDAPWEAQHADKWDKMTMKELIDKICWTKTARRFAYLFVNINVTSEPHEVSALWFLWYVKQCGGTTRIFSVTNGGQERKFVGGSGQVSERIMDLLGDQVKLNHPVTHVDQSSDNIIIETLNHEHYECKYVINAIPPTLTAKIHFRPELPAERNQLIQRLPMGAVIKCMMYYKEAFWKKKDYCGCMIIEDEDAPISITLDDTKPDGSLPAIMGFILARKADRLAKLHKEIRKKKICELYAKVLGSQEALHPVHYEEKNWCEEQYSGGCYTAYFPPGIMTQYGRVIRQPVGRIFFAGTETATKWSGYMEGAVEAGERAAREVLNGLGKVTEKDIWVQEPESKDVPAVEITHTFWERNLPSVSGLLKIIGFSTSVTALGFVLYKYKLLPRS
Type of experiment: functional.

The target of experiment [7] is cGMP-inhibited 3',5'-cyclic phosphodiesterase 3A (Homo sapiens, UniProt Q14432). Type of experiment: functional.
Sequence of cGMP-inhibited 3',5'-cyclic phosphodiesterase 3A (Q14432 whole entry): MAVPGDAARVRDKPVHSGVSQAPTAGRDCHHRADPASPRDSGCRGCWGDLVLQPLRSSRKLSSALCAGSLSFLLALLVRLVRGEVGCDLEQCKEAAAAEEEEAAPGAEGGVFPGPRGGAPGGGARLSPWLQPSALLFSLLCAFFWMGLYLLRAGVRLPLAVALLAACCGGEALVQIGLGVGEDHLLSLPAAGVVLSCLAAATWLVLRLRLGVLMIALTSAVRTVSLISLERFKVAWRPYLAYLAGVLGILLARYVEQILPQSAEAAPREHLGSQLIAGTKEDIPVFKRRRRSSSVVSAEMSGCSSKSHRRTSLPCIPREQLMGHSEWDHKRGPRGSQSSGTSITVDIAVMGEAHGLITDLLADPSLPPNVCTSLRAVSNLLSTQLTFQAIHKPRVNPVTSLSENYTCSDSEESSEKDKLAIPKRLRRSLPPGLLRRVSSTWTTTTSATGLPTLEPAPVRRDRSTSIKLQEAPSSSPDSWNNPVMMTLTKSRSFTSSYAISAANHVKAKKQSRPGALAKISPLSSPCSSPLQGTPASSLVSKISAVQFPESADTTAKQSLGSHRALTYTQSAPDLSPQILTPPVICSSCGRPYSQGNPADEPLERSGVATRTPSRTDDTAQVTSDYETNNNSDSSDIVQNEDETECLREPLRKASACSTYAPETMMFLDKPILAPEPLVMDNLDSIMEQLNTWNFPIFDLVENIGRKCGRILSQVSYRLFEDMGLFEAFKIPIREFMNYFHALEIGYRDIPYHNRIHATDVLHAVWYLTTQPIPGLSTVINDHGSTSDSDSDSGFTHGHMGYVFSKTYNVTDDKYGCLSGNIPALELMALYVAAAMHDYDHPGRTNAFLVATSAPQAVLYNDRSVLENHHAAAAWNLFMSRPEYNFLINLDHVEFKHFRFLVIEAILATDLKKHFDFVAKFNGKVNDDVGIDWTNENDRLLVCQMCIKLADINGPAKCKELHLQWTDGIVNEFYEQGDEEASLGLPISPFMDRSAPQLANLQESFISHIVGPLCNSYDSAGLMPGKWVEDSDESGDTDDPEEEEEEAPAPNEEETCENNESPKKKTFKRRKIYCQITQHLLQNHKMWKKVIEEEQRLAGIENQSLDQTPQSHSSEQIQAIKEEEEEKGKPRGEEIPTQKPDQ
Experiment [8] deals with 3',5'-cyclic-AMP phosphodiesterase 4A (Homo sapiens, UniProt P27815). Type of experiment: functional.
Sequence of 3',5'-cyclic-AMP phosphodiesterase 4A (P27815 whole entry): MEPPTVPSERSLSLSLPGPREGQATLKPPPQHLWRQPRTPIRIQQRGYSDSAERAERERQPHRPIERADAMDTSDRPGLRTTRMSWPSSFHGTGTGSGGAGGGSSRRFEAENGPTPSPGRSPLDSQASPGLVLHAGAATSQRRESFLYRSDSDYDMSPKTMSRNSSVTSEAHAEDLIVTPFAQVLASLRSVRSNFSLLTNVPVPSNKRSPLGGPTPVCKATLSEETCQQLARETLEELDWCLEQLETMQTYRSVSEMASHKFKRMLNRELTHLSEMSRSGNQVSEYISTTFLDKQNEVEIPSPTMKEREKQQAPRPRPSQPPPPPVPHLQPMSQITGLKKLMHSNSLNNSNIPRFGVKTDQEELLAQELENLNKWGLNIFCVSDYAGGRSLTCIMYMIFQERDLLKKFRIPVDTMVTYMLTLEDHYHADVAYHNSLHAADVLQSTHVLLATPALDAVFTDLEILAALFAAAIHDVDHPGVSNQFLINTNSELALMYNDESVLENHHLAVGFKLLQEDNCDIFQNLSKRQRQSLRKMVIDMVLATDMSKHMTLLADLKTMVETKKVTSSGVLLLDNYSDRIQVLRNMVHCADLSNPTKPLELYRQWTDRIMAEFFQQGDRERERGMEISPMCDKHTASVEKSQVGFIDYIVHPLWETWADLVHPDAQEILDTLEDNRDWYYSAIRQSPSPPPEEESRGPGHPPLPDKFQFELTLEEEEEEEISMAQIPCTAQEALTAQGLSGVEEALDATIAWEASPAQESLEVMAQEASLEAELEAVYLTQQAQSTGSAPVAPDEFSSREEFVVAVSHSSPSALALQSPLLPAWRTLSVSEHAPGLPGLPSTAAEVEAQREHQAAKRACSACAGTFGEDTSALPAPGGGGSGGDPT
Experiment [9] deals with Sodium-dependent dopamine transporter (Homo sapiens, UniProt Q01959).
Sequence of Sodium-dependent dopamine transporter (Q01959 whole entry): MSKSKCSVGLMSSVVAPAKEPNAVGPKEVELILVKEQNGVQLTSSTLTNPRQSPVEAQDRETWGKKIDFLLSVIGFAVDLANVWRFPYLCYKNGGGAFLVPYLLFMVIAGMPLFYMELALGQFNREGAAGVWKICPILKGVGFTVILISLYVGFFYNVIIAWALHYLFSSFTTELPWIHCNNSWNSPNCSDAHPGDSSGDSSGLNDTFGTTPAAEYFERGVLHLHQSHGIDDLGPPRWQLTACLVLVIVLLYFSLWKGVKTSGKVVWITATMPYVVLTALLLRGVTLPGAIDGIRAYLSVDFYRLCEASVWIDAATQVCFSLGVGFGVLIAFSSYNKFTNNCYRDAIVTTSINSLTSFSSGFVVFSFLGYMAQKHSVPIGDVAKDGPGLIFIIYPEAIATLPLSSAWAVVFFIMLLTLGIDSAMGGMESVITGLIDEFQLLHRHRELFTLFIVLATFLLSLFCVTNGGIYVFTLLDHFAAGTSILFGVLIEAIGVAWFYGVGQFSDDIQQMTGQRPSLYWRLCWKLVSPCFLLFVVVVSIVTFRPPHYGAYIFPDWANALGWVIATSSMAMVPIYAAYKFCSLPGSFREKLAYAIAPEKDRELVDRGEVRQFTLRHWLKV
The target in experiment [10] is T5, Thromboxane A2 receptor (Homo sapiens, UniProt P21731).
T5 sequence (P21731 whole entry): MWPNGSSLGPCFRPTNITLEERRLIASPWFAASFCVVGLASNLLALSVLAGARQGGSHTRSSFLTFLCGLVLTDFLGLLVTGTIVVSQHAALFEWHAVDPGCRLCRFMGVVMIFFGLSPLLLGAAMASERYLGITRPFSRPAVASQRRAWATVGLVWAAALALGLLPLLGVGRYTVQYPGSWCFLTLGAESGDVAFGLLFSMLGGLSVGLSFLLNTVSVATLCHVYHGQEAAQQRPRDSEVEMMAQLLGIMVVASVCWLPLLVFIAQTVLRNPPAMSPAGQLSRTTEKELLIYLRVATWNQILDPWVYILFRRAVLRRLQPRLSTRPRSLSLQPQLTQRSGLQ
Type of experiment: functional, cell-based.

The target of experiment [11] is T5, Thromboxane A2 receptor. Type of experiment: functional, cell-based. The source holds these as a separate data set.

Molecules are shown by their SMILES.
Note: assay procedure not described here.

Sequence of 5-hydroxytryptamine receptor 2B (P41595 whole entry): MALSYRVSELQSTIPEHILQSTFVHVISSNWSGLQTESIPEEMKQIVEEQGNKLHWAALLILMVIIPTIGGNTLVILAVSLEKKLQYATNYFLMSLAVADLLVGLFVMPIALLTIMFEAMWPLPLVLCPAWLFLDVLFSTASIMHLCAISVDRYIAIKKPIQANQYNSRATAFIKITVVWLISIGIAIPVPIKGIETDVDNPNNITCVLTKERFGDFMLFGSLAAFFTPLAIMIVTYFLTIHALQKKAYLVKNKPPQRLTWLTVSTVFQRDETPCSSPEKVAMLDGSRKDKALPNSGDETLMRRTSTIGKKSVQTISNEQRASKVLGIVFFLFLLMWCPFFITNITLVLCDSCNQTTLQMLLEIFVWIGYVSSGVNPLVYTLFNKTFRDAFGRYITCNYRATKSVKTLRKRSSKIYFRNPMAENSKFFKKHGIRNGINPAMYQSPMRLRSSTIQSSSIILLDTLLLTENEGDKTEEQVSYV
Sequence of Acetylcholinesterase (P22303 whole entry): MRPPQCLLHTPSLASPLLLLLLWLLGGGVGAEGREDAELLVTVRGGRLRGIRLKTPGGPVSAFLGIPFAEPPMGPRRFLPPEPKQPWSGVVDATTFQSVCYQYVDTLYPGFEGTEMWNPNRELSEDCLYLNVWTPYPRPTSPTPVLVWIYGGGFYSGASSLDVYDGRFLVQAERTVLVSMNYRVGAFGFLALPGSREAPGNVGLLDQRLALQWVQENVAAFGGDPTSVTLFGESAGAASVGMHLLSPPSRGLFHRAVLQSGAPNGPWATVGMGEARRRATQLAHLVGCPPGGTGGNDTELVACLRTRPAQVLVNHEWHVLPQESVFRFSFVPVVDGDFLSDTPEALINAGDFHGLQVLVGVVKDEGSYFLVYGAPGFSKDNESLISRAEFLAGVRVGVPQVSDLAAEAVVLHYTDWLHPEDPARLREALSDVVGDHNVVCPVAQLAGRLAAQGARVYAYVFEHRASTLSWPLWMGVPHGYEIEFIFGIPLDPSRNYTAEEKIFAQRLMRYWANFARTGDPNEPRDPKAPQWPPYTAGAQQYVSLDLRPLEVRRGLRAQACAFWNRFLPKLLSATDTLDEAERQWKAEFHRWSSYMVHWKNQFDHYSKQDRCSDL

A word on the AC50: it is the concentration giving half of the maximal activity seen. A lower AC50 goes with greater potency. For the compound `CC(C)(C)NC(=O)N[C@H](C(=O)N1C[C@H]2[C@@H]([C@H]1C(=O)NC(CC1CCC1)C(=O)C(N)=O)C2(C)C)C(C)(C)C` (stereo partly specified) [BOCEPREVIR], the AC50 (at Acetylcholinesterase; in [1]; in experiment [2]; at Prothrombin; on Histamine H3 receptor; in [3]) was more than 30 µM in each case. Further, the AC50 in [4], in [5], in [6], in experiment [7], in experiment [8] and in [9] was more than 30 µM each time. For the same compound, the AC50 on Thromboxane A2 receptor [10] and at Thromboxane A2 receptor [11] was more than 30 µM each time.

Turning to `CCCSc1nc(N[C@@H]2C[C@H]2c2ccc(F)c(F)c2)c2nnn([C@@H]3C[C@H](OCCO)[C@@H](O)[C@H]3O)c2n1` [TICAGRELOR], the AC50 (on Acetylcholinesterase; in [1]; in experiment [2]; at Prothrombin; at Histamine H3 receptor; in [3]) was more than 30 µM each time. The AC50 was more than 30 µM in [4]; 27 µM in experiment [5]; more than 30 µM in experiment [6]; 17 µM in [7]; 21.3 µM in experiment [8]; 0.425 µM in experiment [9]. For the same compound, the results for the AC50 at Thromboxane A2 receptor [10] and on Thromboxane A2 receptor [11] were more than 30 µM and 6.38 µM, respectively.

For `CC[N+](C)(CC)CCOC(=O)C(O)(c1ccccc1)C1CCCCC1` (stereo unspecified) [OXYPHENONIUM], the AC50 at Acetylcholinesterase was more than 30 µM; in [1] it was more than 30 µM; in experiment [2], 0.003 µM; on Prothrombin, more than 30 µM; on Histamine H3 receptor, more than 30 µM; in [3], more than 30 µM. For the same compound, the AC50 was more than 30 µM in [4]; 14 µM in experiment [5]; more than 30 µM in experiment [6]; more than 30 µM in experiment [7]; more than 30 µM in [8]; 21.9 µM in experiment [9]. For the same compound, the AC50 at Thromboxane A2 receptor [10] and at Thromboxane A2 receptor [11] was more than 30 µM in each case.

In the case of `O=C(O)[C@@H]1C[C@@H](O)CN1`, the AC50 (on Acetylcholinesterase; in [1]; in [2]; on Prothrombin; on Histamine H3 receptor; in experiment [3]) was more than 30 µM throughout. The AC50 in [4], in experiment [5], in [6], in [7], in experiment [8] and in experiment [9] was more than 30 µM in each case. The AC50 at Thromboxane A2 receptor [10] and on Thromboxane A2 receptor [11] was more than 30 µM in each case.

Regarding `CC(=O)O[C@H]1Cc2ccccc2N(C(N)=O)c2ccccc21` [ESLICARBAZEPINE ACETATE], the AC50 (on Acetylcholinesterase; in experiment [1]; in experiment [2]; on Prothrombin; on Histamine H3 receptor; in experiment [3]) was more than 30 µM each time. The AC50 in experiment [4], in experiment [5], in experiment [6], in experiment [7], in experiment [8] and in experiment [9] was more than 30 µM each time. For the same compound, the AC50 at Thromboxane A2 receptor [10] and on Thromboxane A2 receptor [11] was more than 30 µM in each case.

`CC1(CCN2CCCCC2)C(=O)CCc2ccccc21` (stereo unspecified) [NEPINALONE]: the AC50 on Acetylcholinesterase is more than 30 µM; in [1] it was 18.3 µM; in experiment [2], 7.14 µM; on Prothrombin it was more than 30 µM; on Histamine H3 receptor, more than 30 µM; in experiment [3], more than 30 µM. Further, the AC50 in [4], in [5], in [6], in experiment [7], in [8] and in experiment [9] was more than 30 µM throughout. Moreover, the AC50 on Thromboxane A2 receptor [10] and at Thromboxane A2 receptor [11] was more than 30 µM throughout.

As to `C=C1CC[C@H](O)C/C1=C/C=C1\CCC[C@]2(C)[C@@H]([C@H](C)CCCC(C)C)CC[C@@H]12` [CHOLECALCIFEROL], the AC50 (on Acetylcholinesterase; in experiment [1]; in experiment [2]; on Prothrombin; at Histamine H3 receptor; in experiment [3]) was more than 30 µM in each case. In addition, the AC50 is more than 30 µM in [4]; more than 30 µM in experiment [5]; more than 30 µM in [6]; more than 3 µM in experiment [7]; more than 30 µM in experiment [8]; more than 30 µM in experiment [9]. For the same compound, the AC50 on Thromboxane A2 receptor [10] was more than 30 µM; at Thromboxane A2 receptor [11], 22.4 µM.

Regarding `Cc1ccc(C(=O)C(C)CN2CCCCC2)cc1` (stereo unspecified) [TOLPERISONE], the AC50 is more than 30 µM on Acetylcholinesterase; more than 30 µM in [1]; 3.7 µM in [2]; more than 30 µM on Prothrombin; 4.74 µM at Histamine H3 receptor; more than 30 µM in [3]. Besides, the AC50 in experiment [4], in [5], in experiment [6], in [7], in experiment [8] and in experiment [9] was more than 30 µM in each case. In addition, the AC50 at Thromboxane A2 receptor [10] and on Thromboxane A2 receptor [11] was more than 30 µM in each case.

Consider `COc1ccc(OC)c(C(O)C(C)N)c1` (stereo unspecified) [METHOXAMINE], for which the AC50 on Acetylcholinesterase was more than 30 µM; in experiment [1], 25.9 µM; in experiment [2], more than 30 µM; at Prothrombin it was more than 30 µM; on Histamine H3 receptor, more than 30 µM; in [3], more than 30 µM. Further, the AC50 in experiment [4], in experiment [5], in experiment [6], in [7], in experiment [8] and in experiment [9] was more than 30 µM throughout. Also, the AC50 on Thromboxane A2 receptor [10] and at Thromboxane A2 receptor [11] was more than 30 µM in each case.
